Data published in US20090226500A1, “SUTURES AND ANTI-SCARRING AGENTS” (Angiotech Pharmaceuticals, Inc, priority 2006, published 2009).
Counter-ions that a name gives are not always drawn. Like-named read-outs stand apart in the source and are kept apart here.

Key:
E. coli UB1005 C498 = assay: MIC microtitre broth dilution, E. coli; assay type: cell-based; conditions: E. coli UB1005 C498 wt Gram−, 24 h
Experimental: MIC assays were conducted essentially as described by Amsterdam, D 1996, “Susceptibility testing of antimicrobials in liquid media”, p. 52-111, in Loman, V, ed. Antibiotics in laboratory medicine, 4th ed Williams and Wilkins, Baltimore, Md.

[1] = tested on: MCP-1 production by THP-1 cells; assay: MCP-1 production by macrophages; assay type: cell-based, human; conditions: read-out: IC50 MCP-1 production
Experimental: (§1) The human macrophage cell line, THP-1 was plated in a 12 well plate such that each well contains 1×10^6 cells in 2 ml of media containing 10% FCS. Opsonized zymosan was prepared by resuspending 20 mg of zymosan A in 2 ml of ddH2O and homogenizing until a uniform suspension was obtained. Homogenized zymosan was pelleted at 250 g and resuspended in 4 ml of human serum for a final concentration of 5 mg/ml and incubated in a 37° C. water bath for 20 minutes to enable opsonization. Geldanamycin was prepared in DMSO at a concentration of 10^−2 M and serially diluted 10-fold to give a range of stock concentrations (10^−8 M to 10^−2 M).
(§2) THP-1 cells were stimulated to produce MCP-1 by the addition of 1 mg/ml opsonized zymosan. Eldanamycin was added to THP-1 cells by directly adding DMSO stock solutions, prepared earlier, at a 1/1000 dilution, to each well. Each drug concentration was tested in triplicate wells. Plates were incubated at 37° C. for 24 hours.
After a 24-hour stimulation, supernatants were collected to quantify MCP-1 production. MCP-1 concentrations in the supernatants were determined by ELISA using recombinant human MCP-1 to obtain a standard curve. A 96-well MaxiSorb plate was coated with 100 μL of anti-human MCP-1 Capture Antibody diluted in Coating Buffer (0.1M sodium carbonate pH 9.5) overnight at 4° C. The dilution of Capture Antibody used was lot-specific and was determined empirically. Capture antibody was then aspirated and the plate washed 3 times with Wash Buffer (PBS, 0.05% TWEEN-20). Plates were blocked for 1 hour at room temperature with 200 μL/well of Assay Diluent (PBS, 10% FCS pH 7.0). After blocking, plates were washed 3 times with Wash Buffer. […] Sample supernatants and standards were assayed in triplicate and were incubated at room temperature for 2 hours after addition to the plate coated with Capture Antibody. The plates were washed 5 times and incubated with 100 μL of Working Detector (biotinylated anti-human MCP-1 detection antibody+avidin-HRP) for 1 hour at room temperature. Following this incubation, the plates were washed 7 times and 100 μL of Substrate Solution (tetramethylbenzidine, H2O2) was added to plates and incubated for 30 minutes at room temperature. […] Mean absorbance was determined from triplicate data readings and the mean background was subtracted. MCP-1 concentration values were obtained from the standard curve.

Smooth muscle cells = assay: Proliferation of smooth muscle cells; assay type: cell-based; conditions: 72 hours, CYQUANT; read-out: IC50 proliferation of smooth muscle cells
Experimental: Smooth muscle cells at 70-90% confluency were trypsinized, replated at 600 cells/well in media in 96-well plates and allowed to attachment overnight. Paclitaxel was prepared in DMSO at a concentration of 10^−2 M and diluted 10-fold to give a range of stock concentrations (10^−8 M to 10^−2 M). […] Each drug concentration was tested in triplicate wells. Plates containing cells and paclitaxel were incubated at 37° C. for 72 hours.
To terminate the assay, the media was removed by gentle aspiration A 1/400 dilution of CYQUANT 400×GR dye indicator (Molecular Probes; Eugene, Oreg.) was added to 1× Cell Lysis buffer, and 200 μL of the mixture was added to the wells of the plate. Plates were incubated at room temperature, protected from light for 3-5 minutes.

[2] = tested on: IL-8 production by THP-1 cells; assay: IL-8 production by macrophages; assay type: cell-based, human; conditions: THP-1 cells stimulated with opsonized zymosan, 24 hours, read-out: IC50 IL-8 production
Experimental: as §1, with “g,” for “g and”, “mg/ml,” for “mg/ml”
as §2, with “IL-8” for “MCP-1”, “Geldanamycin” for “Eldanamycin”
After a 24-hour stimulation, supernatants were collected to quantify IL-8 production. IL-8 concentrations in the supernatants were determined by ELISA using recombinant human IL-8 to obtain a standard curve. A 96-well MAXISORB plate was coated with 100 μL of anti-human IL-8 Capture Antibody diluted in Coating Buffer (0.1M sodium carbonate pH 9.5) overnight at 4° C. The dilution of Capture Antibody used was lot-specific and was determined empirically. Capture antibody was then aspirated and the plate washed 3 times with Wash Buffer (PBS, 0.05% TWEEN-20). Plates were blocked for 1 hour at room temperature with 200 μL/well of Assay Diluent (PBS, 10% FCS pH 7.0). After blocking, plates were washed 3 times with Wash Buffer. Standards and sample dilutions were prepared as follows: (a) sample supernatants were diluted 1/100 and 1/1000; (b) recombinant human IL-8 was prepared at 200 pg/ml and serially diluted to yield as standard curve of 3.1 pg/ml to 200 pg/ml Sample supernatants and standards were assayed in triplicate and were incubated at room temperature for 2 hours after addition to the plate coated with Capture Antibody The plates were washed 5 times and incubated with 100 μL of Working Detector (biotinylated anti-human IL-8 detection antibody+avidin-HRP) for 1 hour at room temperature. Following this incubation, the plates were washed 7 times and 100 μL of Substrate Solution (Tetramethylbenzidine, H2O2) was added to plates and incubated for 30 minutes at room temperature. Stop Solution (2 NH2SO4) was then added to the wells and a yellow color reaction was read at 450 nm with A correction at 570 nm. Mean absorbance was determined from triplicate data readings and the mean background was subtracted. IL-8 concentration values were obtained from the standard curve. […] The IC50 values for the following additional compounds were determined using this assay: IC50 (nM): 17-AAG, 56; mycophenolic acid, 549; resveratrol, 507; rapamycin, 4; 41; SP600125, 344; halofuginone, 641; D-mannose-6-phosphate, 220; epirubicin hydrochloride, 654; topotemay, 257; mithramycin, 33; daunorubicin, 421; celastrol, 490; chromomycin A3, 36

[3] = tested on: IL-1β production by THP-1 cells; assay: IL-1β production by macrophages; assay type: cell-based, human; conditions: read-out: IC50 IL-1β production
human fibroblasts = assay: Cell proliferation of fibroblasts; assay type: cell-based; conditions: Fibroblast, 72 hours, CYQUANT, read-out: IC50 cell proliferation of fibroblasts
Method in brief: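 Human fibroblasts plated at 600 cells/well, attached overnight, then exposed to drug in triplicate for 72 h at 37°C. Cell content read with CYQUANT GR dye in lysis buffer after 3-5 min at room temperature.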

[4] = tested on: TNFα production by THP-1 cells; assay: TNF-alpha production by macrophages; assay type: cell-based, human; conditions: read-out: IC50 TNFα production
Experimental: as §1, with “12-well” for “12 well”, “opsonization.” for “opsonization. Geldanamycin was prepared in DMSO at a concentration of 10^−2 M and serially diluted 10-fold to give a range of stock concentrations (10^−8 M to 10^−2 M).”
THP-1 cells were stimulated to produce TNFα by the addition of 1 mg/ml opsonized zymosan. […] Each drug concentration was tested in triplicate wells. Plates were incubated at 37° C. for 24 hours.
After a 24-hour stimulation, supernatants were collected to quantify TNFα production. TNFα concentrations in the supernatants were determined by ELISA using recombinant human TNFα to obtain a standard curve A 96-well MaxiSorb plate was coated with 100 μL of anti-human TNFα Capture Antibody diluted in Coating Buffer (0.1M sodium carbonate pH 9 5) overnight at 4° C. The dilution of Capture Antibody used was lot-specific and was determined empirically. Capture antibody was then aspirated and the plate washed 3 times with Wash Buffer (PBS, 0.05% TWEEN-20) Plates were blocked for 1 hour at room temperature with 200 μL/well of Assay Diluent (PBS, 10% FCS pH 7.0). After blocking, plates were washed 3 times with Wash Buffer. […] Sample supernatants and standards were assayed in triplicate and were incubated at room temperature for 2 hours after addition to the plate coated with Capture Antibody. The plates were washed 5 times and incubated with 100 μL of Working Detector (biotinylated anti-human TNFα detection antibody+avidin-HRP) for 1 hour at room temperature. Following this incubation, the plates were washed 7 times and 100 μL of Substrate Solution (tetramethylbenzidine, H2O2) was added to plates and incubated for 30 minutes at room temperature. […] Mean absorbance was determined from triplicate data readings and the mean background was subtracted. TNFα concentration values were obtained from the standard curve.

[5] = THP-1 cells stimulated with opsonized zymosan, 24 hours
[6] = Homo sapiens, THP-1 cells stimulated with opsonized zymosan, 24 hours

For `Sc1ncc2[nH]cnc2n1` [2-mercaptopurine], the Minimum inhibitory concentration (E. coli UB1005 C498) was “N”.

For `Sc1ncnc2nc[nH]c12` [6-mercaptopurine], the Minimum inhibitory concentration (E. coli UB1005 C498) was “N”.

In the case of `C=CCNC1=C2C[C@@H](C)C[C@H](OC)[C@H](O)[C@@H](C)/C=C(\C)[C@H](OC(N)=O)[C@@H](OC)/C=C\C=C(/C)C(=O)NC(=CC1=O)C2=O` [17-AAG, 17-allylaminogeldanamycin], the IC50 [1, 5] is reported as 135 nM, the IC50 (Smooth muscle cells) is reported as 47 nM and the IC50 [2] is reported as 56 nM.

Work on `O=C[C@@H](O)[C@@H](O)[C@H](O)[C@H](O)COP(=O)(O)O` [D-mannose-6-phosphate] yielded an IC50 ([2]; Homo sapiens) of 220 nM.

With `C[C@H](NC(=O)C(=O)Nc1ccccc1C(C)(C)C)C(=O)N[C@@H](CC(=O)O)C(=O)COc1c(F)c(F)cc(F)c1F` [IDN-6556] the IC50 [3, 6] was 642 nM.

For `Oc1c2ccccc2c2c3c(cccc13)N=N2` [SP600125], the IC50 (human fibroblasts) was 1200 to 10000 nM and the IC50 ([2]; Homo sapiens) was 344 nM.

For `COc1ccc(C[C@H]2NC[C@H](O)[C@H]2OC(C)=O)cc1` [anisomycin], the IC50 [1, 5] was 71 nM, the IC50 (Smooth muscle cells) was 276 nM and the IC50 [3, 5] was 127 nM.

`CO[C@@H]1[C@H](O)C[C@@H](O[C@@H]2C[C@H](Oc3cc4cc5c(c(O)c4c(O)c3C)C(=O)[C@@H](O[C@H]3C[C@@H](O[C@H]4C[C@@H](O[C@H]6C[C@](C)(O)[C@@H](OC(C)=O)[C@H](C)O6)[C@H](O)[C@@H](C)O4)[C@H](O)[C@@H](C)O3)[C@H]([C@H](OC)C(=O)[C@@H](O)[C@@H](C)O)C5)O[C@H](C)[C@@H]2OC(C)=O)O[C@@H]1C` [chromomycin A3] was tested, and the IC50 [1, 5] was 37 nM, the IC50 (Smooth muscle cells) was 12 nM and the IC50 [4, 5] was 394 nM. It also gave an IC50 [3] of 148 nM and an IC50 [2] of 36 nM.

`COc1cccc2c1C(=O)c1c(O)c3c(c(O)c1C2=O)C[C@@](O)(C(C)=O)C[C@@H]3O[C@H]1C[C@H](N)[C@H](O)[C@H](C)O1` [daunorubicin] was tested, and the IC50 [1, 5] was 570 nM, the IC50 (Smooth muscle cells) was 50 nM and the IC50 [4, 5] was 195 nM. It also gave an IC50 [3] of 517 nM and an IC50 [2] of 421 nM.

Compound `COc1cccc2c1C(=O)c1c(O)c3c(c(O)c1C2=O)C[C@@](O)(C(=O)CO)C[C@@H]3O[C@H]1C[C@H](N)[C@@H](O)[C@H](C)O1` [epirubicin hydrochloride] has an IC50 (Smooth muscle cells) of 19 nM, an IC50 [3, 5] of 774 nM and an IC50 [2] of 654 nM.

Compound `O=C1c2ccccc2-[n+]2ccc3c([nH]c4ccccc43)c21` [fascaplycin, Fascaplysin] has an IC50 ([1]; Homo sapiens, THP-1, 24 h) of 215 nM, an IC50 (human fibroblasts) of 600 to 1200 nM and an IC50 (Smooth muscle cells) of 510 nM. The IC50 ([4]; Homo sapiens, THP-1, 24 h) was 701 nM and the IC50 ([3]; Homo sapiens, THP-1, 24 h) was 425 nM.

`O=C(CC1NCCCC1O)Cn1cnc2cc(Br)c(Cl)cc2c1=O` (stereo not shown) [halofuginone] was tested, and the IC50 [1, 6] was 9 nM, the IC50 (human fibroblasts) was 10 to 100 nM and the IC50 (Smooth muscle cells) was 81 nM. The IC50 ([3]; Homo sapiens, THP-1, 24 h) was 919 nM and the IC50 ([2]; Homo sapiens) was 641 nM.

With `O=C1[O][Pt]2([NH][C@@H]3CCCC[C@H]3[NH]2)[O]C1=O` [oxalipatin, Oxaliplatin] the IC50 [3, 5] was 107 nM.

`Oc1ccc(C=Cc2cc(O)cc(O)c2)cc1` [resveratrol] showed an IC50 ([2]; Homo sapiens) of 507 nM.

For `CC[C@@]1(O)C(=O)OCc2c1cc1n(c2=O)Cc2cc3c(CN(C)C)c(O)ccc3nc2-1` [topotemay, Topotecan], the IC50 [1, 5] was 514 nM, the IC50 (Smooth muscle cells) was 51 nM and the IC50 [3, 5] was 509 nM. The IC50 [2] was 257 nM.

Mithramycin A was tested, and the IC50 [1, 5] was 18 nM, the IC50 (Smooth muscle cells) was 19 nM and the IC50 [4, 5] was 570 nM. It also gave an IC50 [2] of 33 nM.

Compound rapamycin has an IC50 [1, 5] of 0.05 nM, an IC50 [4, 5] of 51 nM and an IC50 [3, 5] of 0.48 nM. For the same compound, the IC50 [2] was 4 nM.
